# In US20260070921A1, “COMPOUND, ENDOPLASMIC RETICULUM STRESS INHIBITOR, PHARMACEUTICAL PRODUCT, OPHTHALMIC AGENT, EYE DROPS, COMPOSITION, AND METHOD FOR PRODUCING COMPOUND” (KYOTO UNIVERSITY, priority 2022, published 2026):
# How the values were obtained:
# [1] = Reversibility of self-assembly on dilution (DCVJ fluorescence); type: physicochemical; conditions: dilution of preformed assemblies
# Method: Compound 1 (100 μM) was incubated in DMEM (10% FBS, 0.5, DMSO) at 25° C. for 1 hour to allow it to form self-assemblies. A solution of pre-formed assemblies of compound 1 was diluted in various ratios with DMEM (10% FBS, 0.5% DMSO). All samples contained 1.0 μM DCVJ, an environmentally sensitive dye, to quantify the amount of self-assembly of compound 1 by fluorescence. If the self-assembly is irreversible (upper graph in the frame), the fluorescence signal is linear with respect to the amount of the compound. […] In the two graphs within the frame, the vertical axis represents fluorescence, and the horizontal axis represents concentration. […] A time-dependent decrease in fluorescence at 25 μM (as a monomer of compound 1) was also observed. Error bars represent s.d. (n=3).
# C57BL6J mice = assay: Lens-induced myopia in mice, eye drops; type: in vivo; conditions: −30 D lens 3 weeks, eye drop once a day
# Method: (§1) A −30 diopter (unit of refractive index: D) lens was attached to the right eye of 3-week-old male C57BL6J mice, while only a lens frame was attached to the left eye, which served as a control eye. The lenses were worn for three weeks, and the refractive index and axial length of eyes were measured before and after attachment of the lenses. Concurrently with myopia induction, an eye drop, which is a 0.025 solution of X441A in PBS, was administered by instillation once a day every day. PBS was administered by eye drop to the control group (group administered with PBS). After 3 weeks of myopia induction and eye drop administration, the eyeballs were enucleated from the mice, and the sclera was isolated. Then, western blotting was performed to analyze the expression levels of p62, Atg5, and Atg12 in each group.
# Atg5, and Atg12 = assay: Western blotting of sclera after myopia induction, Atg5/Atg12; type: in vivo, mice; conditions: eye drop 3 weeks
# Method: as §1
# (§2) After 3 weeks of myopia induction and eye drop administration, the eyeballs were enucleated from the mice, and the sclera was isolated. Then, western blotting was performed to analyze the expression levels of p62, Atg5, and Atg12 in the group administered with X441A and the group administered with PBS.
# [2] = Confocal microscopy of Nile red-stained assemblies; type: physicochemical; conditions: cell culture medium, prolonged incubation (>5 hr)
# Method: Doping with the environmentally sensitive dyes, Nile red and 9-(2,2-dicyanovinyl)julolidine (DCVJ), enabled detection of assembly formation by fluorescence spectroscopy and confocal microscopy. The relative amount of self-organization of compound 1 was quantified using DCVJ to form a DMEM-normalized dose-organization curve (FIG. 24). Fitting with a sigmoid curve gave an apparent half-maximal assembly concentration (AC50) of 29.7 μM for the molecules of compound 1. […] In confocal microscopy, assemblies of compound 1 stained with Nile red were readily detectable in PBS (pH of 7.4). In the cell culture medium, assemblies of compound 1 stained with Nile red were initially not visible due to the small particle size, but prolonged incubation (>5 hr) led to the formation of larger detectable assemblies (>1 μm in diameter).
# Solubility = type: physicochemical; conditions: in DMSO
# p62 = assay: Western blotting of sclera after myopia induction, p62; type: in vivo, mice; conditions: eye drop 3 weeks
# Method: as §1, §2
# [3] = system: pIRE1/IRE and p-eIF2/eIF2; assay: Endoplasmic reticulum stress pathway activation in myopic sclera; type: in vivo, mice; conditions: eye drop 3 weeks
# Description: Thus, the attachment of a minus lens may enhance autophagy, and autophagy was not shown to be complete in the control group. […] This is thought to be the mechanism by which myopia progression is inhibited.
smiles,measurement,setting,value
NS(=O)(=O)c1ccc(Nc2ccn3c(n2)nc(=O)c2sc4cc(F)ccc4c23)cc1 [compound 1],Reversibility of self-assembly,[1],disintegration of the particles
same,Axial length elongation of eyes,C57BL6J mice,such changes were not observed
same,Myopic shift in refractive index,C57BL6J mice,such changes were not observed
same,Increase in expression of At5/Atg12,"Atg5, and Atg12",enhanced regardless of the administration of X441A
same,Diameter of detectable assemblies,[2],> 1 μm
same,Solubility,Solubility,readily soluble
same,Expression level of p62,p62,decreased
same,Activation of the endoplasmic reticulum stress pathway caused by myopia induction,[3],did not occur
